Entries after “also recorded” stand apart in the source; their conditions may differ. Ends that are not written are not given here.
Experiments:
[1] = test system: WiDr, MDA-MB-435S, SW480 and LoVo; assay: Transfection of human tumor cell lines; assay type: cell-based; conditions: peptide/plasmid pTG11236 complexes, luciferase day 1
Experimental: WiDr (ATCC CCL-218), MDA-MB-435S (ATCC HTB-129), SW480 (ATCC CCL-228) and LoVo cell (CCL-229) were cultivated in the appropriate medium with 10% fetal calf serum, 1% gentamycine, 1% glutamine and 3 g/l glucose, in an incubator at 37° C. and 5% CO2.
The transfection efficiencies with plasmid/ppTG1 complexes were tested in the human tumor cells WiDr, MDA-MB-435S, SW480 and LoVo (ATCC) in comparison to lipofectin, PEI and pcTG90/DOPE (1:1) [±] 5.

[2] = test system: B6SJL mice, lungs; assay: In vivo gene transfer after intravenous injection, luciferase activity in the lungs
Experimental: Mice were sacrificed at day 1.
Lungs were tested for luciferase activity.

[3] = test system: B6SJL mice, lungs; assay: as above; conditions: 3 days after injection
[4] = Liposome leakage assay, calcein-containing POPC liposomes; assay type: biochemical
Experimental: (§1) Leakage activity was plotted against peptide concentration.
The peptide ppTG1 was tested for its capacity to cause membrane disruption in a liposome leakage assay with POPC liposomes containing the fluorescent product calcein. […] Release of calcein by Triton X-100 treatment was taken as positive control reaction, incubation with water served as negative control. The membranolytic activity of peptide ppTG1 (20 μg as starting point) was compared with those of equal quantities (20 μg) of JTS-1, JTS-1-K13 and KALA.

[5] = test system: HeLa cells; assay: Transfection in the presence of Bafilomycin A; assay type: cell-based; conditions: 175 nM Bafilomycin A, 150 ng pTG11236
Experimental: Transfection in the presence of Bafilomycin A: 6×10^4 HeLa cells were plated on 24 well plates. Cells were treated with 175 nM Bafilomycin A 30 min before and throughout the transfection (1 h incubation of cells with transfection mix in the absence of serum).
Bafilomycin A is a specific inhibitor of the vacuolar proton pump. Treatment with Bafilomycin inhibits the acidification of late endosomes. HeLa cells were treated with Bafilomycin A (175 nM) 30 min before and throughout the transfection (1 h incubation with transfection complexes in the absence of serum). 6×10^4 cells were transfected with 150 ng pTG11236 using PEI or ppTG1. The luciferase assay was performed 1 day after transfection.

[6] = test system: CHO cells; assay: Transfection in vitro, luciferase plasmid pTG11236; assay type: cell-based
Experimental: A comparison of ppTG1 and KALA was carried out in HeLa and CHO cells. 5×10^4 cells were seeded on 24 well plates. The next day, cells were transfected with 500 ng and 50 ng of pTG11236, complexed with ppTG1 or KALA in 30μl 0.9% NaCl. The charge ratio±varied from 1, 2, 3, 4, 7 to 10. Cells were harvested 20 h after transfection and lysis was obtained in 100 μl Promega lysis buffer. Luciferase activity and total protein concentrations in 20 μl were determined.

[7] = test system: 293-EBNA cells; assay: Transfection in vitro, luciferase plasmid pTG11056; assay type: cell-based; conditions: charge ratio around 1
Experimental: Cells were plated on 24 well plates at a density of 4×10^4 (293-EBNA ) or 7×10^4 (HeLa, Renca) cells/well in DMEM supplemented with 10% FCS. The next day, the medium was replaced by 200 μl serum-free DMEM and plasmid (PTG11056 or pTG11236)/peptide complexes or plasmid/peptide/lipid complexes were prepared in 30 μl 0.9% NaCl or 5% glucose. After 20 min at room temperature these complexes were added to the cells which were then incubated for 2-3 h at 37° C. and 5% CO2 before 1 ml serum-containing DMEM was added. Approximately 20 hours later, cells were lysed by addition of 100 μl 1× Promega lysis buffer, 20 μl of the lysates were analysed for luciferase activity. Proteins were quantified with the bicinchonic acid (BCA) colorimetric method (Smith, Anal. Biochem. 150 (1985), 76-85).
4×10^4 293-EBNA cells, plated on 24 well plates the day before, were transfected with 0.5 μg, 0.1 μg, 0.05 μg arid 0.01 μg of the plasmid pTG11056. The plasmid was either mixed with completely or uncompletely DNA-complexing amounts of ppTG1 in 30 μl 5% glucose and after 20 min at room temperature the mixture was added to the cells which were incubated in 200 μl serum-free medium. Further, pTG11056 was formulated with the established transfection reagents Lipofectin and PEI. […] After twenty hours, cells were washed and luciferase activity was determined in ⅕of the lysed cells.

[8] = Liposome leakage assay, POPC/cholesterol 3:2 liposomes; assay type: biochemical
Description: FIG. 9: Liposome leakage assay. […] Emitted fluorescence was plotted against peptide concentration. […] C) Comparison of ppTG1, ppTG20 and ppTG21 at pH 7.
as §1

[9] = test system: plasmid pTG11236; assay: Gel retardation assay (DNA binding activity)
Experimental: 3 μg of the plasmid pTG11236 were incubated with increasing amounts of the respective peptide in a final volume of 30 μl with 0.9% NaCl. After 20 min of incubation at room temperature, 6 μl 5× loading buffer (glycerol and bromphenol blue in TAE buffer) were added and 10 μl of these solutions were analyzed on a 1% agarose gel in the presence of ethidium bromide.
The ability of ppTG1 peptide to complex DNA was analyzed by gel retardation assays. […] After 20 minutes incubation at room temperature, loading buffer was added and 10 μl of the resulting solution were analyzed on a 1% agarose gel.
ppTG1 derivatives as they are indicated in Materials and Methods, were tested for their capacity to bind plasmid DNA by gel retardation assays.

[10] = Liposome leakage assay, POPC/cholesterol 3:2 liposomes; assay type: biochemical; conditions: POPC/chol liposomes, pH 5

Sequence: GLFKALLKLLKSLWKLLLKA
- transfection of human tumor cell lines [1]: successfully transfected; also recorded: can efficiently transfect
- re-administration of peptide/plasmid complexes ([2]; at day 3 after the first injection): refractory
- re-administration of peptide/plasmid complexes ([2]; at day 14 after the first injection): re-appearance of reporter gene expression
- mice with gene expression in the lung ([2]; complexes of pTG11236 and peptide, intravenous, day 1): 5 out of 5
- gene transfer efficiency in the lung ([2]; pTG11236/peptide complexes intravenously injected, luciferase day 1): at least comparable to gene transfer with the optimized lipoplexes; also recorded: comparable to those obtained with the lipoplexes; also recorded: better than with JTS-1-K13
- improvement of gene expression by presence of peptide in complexes comprising cationic lipids ([2]; pcTG90/DOPE 1:2 complexes, intravenous, lung, day 1): 10 factor
- gene expression over time [3]: background levels
- membrane disruption ([4]; pH 5): capable of causing membrane disruption
- membrane disruption ([4]; pH 7): capable of causing membrane disruption
- effect of Bafilomycin A on transfection efficiency [5]: did not influence
- more efficient in gene transfer than KALA ([6]; 50 ng pTG11236): 68 fold
- more efficient in gene transfer than KALA ([6]; 500 ng pTG11236): 9 fold
- more efficient than the complex comprising KALA ([6]; CHO cells, in the best case): 2500 fold
- transfection efficiency ([7]; 0.05 μg pTG11056 with 0.065 μg peptide): high transfection efficiency
- luciferase activities ([7]; 0.5 μg pTG11056 with 0.65 μg peptide): higher than those observed with complexes formed with Lipofectin or PEI
- liposome leakage activity ([8]; POPC/Chol (3:2) liposomes, pH not separated (compared at pH 5 and pH 7)): destabilizes efficiently
- liposome leakage activity / calcein release ([8]; POPC/chol liposomes, pH 7): efficiently liberate calcein
- liposome leakage of peptide/plasmid pTG11236 complexes ([8]; charge ratios (P/N) of 1 or 0.8, pH 7): slightly reduced
- liposome leakage of peptide/plasmid pTG11236 complexes ([8]; excess of peptide, P/N 5 or 10, pH 7): comparable to free ppTG1
- DNA complexed ([9]; 1 μg peptide (0.35 nmol), 3 μg pTG11236): 50%
- amount of peptide giving retardation of plasmid ([9]; 3 μg plasmid DNA pTG11236 (0,8 pmol)): 4 µg
- liposome leakage activity / calcein release [10]: efficiently liberate calcein
